The source of these data is ChEMBL document CHEMBL1130750, “Heteroatom-substitution as a strategy for increasing the potency of competitive NMDA antagonists” (Bioorg Med Chem Lett, 1998).

The term IC50 denotes the concentration that inhibits the measured activity by half. Broadly, the inhibition is the change of the read-out against control, counted positive when it falls.

Experiment [1] concerns the target Glutamate NMDA receptor. In words: Compound was tested in vitro for inhibition of binding of [3H]-CGS- 19755 radioligand to NMDA receptor in rat brain membranes. Type of experiment: cell membranes.
Experiment [2] addresses T1, Glutamate NMDA receptor (Rattus norvegicus) (UniProt P35439+Q00959+Q00960+Q00961+Q62645+Q8VHN2+Q9R1M7). In words: In vitro percent inhibition of depolarizations induced by 3.2 uM NMDA in a cortical slice ( NMDA antagonist). The class given is functional.
The target of experiment [3] is T1, Glutamate NMDA receptor (Rattus norvegicus). The experiment is described as follows: In vitro percent inhibition of depolarizations induced by 10 uM NMDA in a cortical slice (NMDA antagonist). The class given is functional.
The test system of experiment [4] is Mus musculus. In words: In vivo minimum effective dose required to block NMDA induced lethality in Mice following i.p. administration. Type of experiment: functional. As to conditions: ip, read-out: MED.
Experiment [5] deals with Glutamate NMDA receptor. In words: Compound was tested in vitro for its ability to inhibit depolarizations induced by 40 uM NMDA in a cortical slice (NMDA antagonist). Type of experiment: functional.
Experiment [6] has as its target Glutamate NMDA receptor. The experiment is described as follows: Compound was tested in vitro for its ability to inhibit depolarizations induced by 40 uM NMDA in a cortical slice(NMDA antagonist). Type of experiment: functional.
For experiment [7], the target named is Glutamate NMDA receptor. The experiment is described as follows: In vitro ability to inhibit depolarizations induced by 40 uM NMDA in a cortical slice (NMDA antagonist). Type of experiment: functional.

`O=C(O)[C@H]1C[C@@H](CSc2nn[nH]n2)CCN1`: the IC50 in experiment [1] came out at 1.3 µM.
For `O=C(O)[C@H]1C[C@H](Sc2nn[nH]n2)CCN1`, the results for the inhibition in experiment [2] and in experiment [3] were 20% and 75%, respectively. The compound further showed an IC50 in experiment [1] of 0.075 µM.
As to `O=C(O)[C@H]1C[C@@H](Cc2nnn[nH]2)CCN1`, the minimal effective dose in experiment [4] was found to be 5 mg/kg. The compound also returned an IC50 in experiment [1] of 0.017 µM.
With `O=C(O)[C@H]1C[C@@H](COCc2nn[nH]n2)CCN1`, in experiment [4], the minimal effective dose is 80 mg/kg. The results for the IC50 in experiment [5] and in experiment [1] were 34.5 µM and 8.3 µM, respectively.
In the case of `O=C(O)[C@H]1C[C@@H](CCc2nnn[nH]2)CCN1`, in experiment [4], the minimal effective dose stood at 20 mg/kg. Also, the IC50 in experiment [6] turned out to be 8.1 µM; in experiment [1], 2.3 µM.
Turning to `O=C(O)[C@H]1C[C@@H](Sc2nn[nH]n2)CCN1`, in experiment [1], the IC50 was determined as 0.11 µM.
For `O=C(O)[C@H]1C[C@@H](OCc2nn[nH]n2)CCN1`, the minimal effective dose in experiment [4] was found to be 2.5 mg/kg. Moreover, the figures for the IC50 in experiment [5] and in experiment [1] were 4.7 µM and 0.28 µM, respectively.
Turning to `O=C(O)[C@H]1C[C@@H](CCCc2nnn[nH]2)CCN1`, the minimal effective dose in experiment [4] worked out at 10 mg/kg. This compound returned an IC50 in experiment [7] of 12.4 µM.
